Here are results for six compounds from patent US7618956B2, “Reduction of hair growth” (The Gillette Company, priority 2005, dated 2009).

Experiment [1] has as its system Human hair follicles in growth phase (anagen). Description: Human hair follicle growth assay. It counts as cell-based. The settings on record: for Hair follicle length increase (mm) Treated: day 0 to day 7; for % Reduction of human hair follicle growth / Growth of follicle (mm) Treated: Table III. How it is done: Human Hair Follicle Growth Assay:
Human hair follicles in growth phase (anagen) were isolated from face-lift tissue (obtained from plastic surgeons) under dissecting scope using a scalpel and watchmakers forceps. The skin was sliced into thin strips exposing 2-3 rows of follicles that could readily be dissected. Follicles were placed into 0.5 ml William's E medium (Life Technologies, Gaithersburg, Md.) supplemented with 2 mM L-glutamine, 10 μg/ml insulin, 10 ng/ml hydrocortisone, 100 units of penicillin, 0.1 mg/ml streptomycin and 0.25 μg/ml amphotericin B. The follicles were incubated in 24-well plates (1 follicle/well) at 37° C. in an atmosphere of 5% CO2 and 95% air. Compounds are dissolved into dimethyl sulfoxide as 100-fold stock solution. The control hair follicles were treated with dimethyl sulfoxide without prostaglandin. The follicles were photographed in the 24-well plates under the dissecting scope at a power of 10×. Typically, image recordings were made on day 0 (day follicles were placed in culture), and again on day 7. The length of hair follicle was assessed using an image analysis software system. The growth of hair fiber was calculated by the subtracting the follicle length on day 0 from that determined on day 7.

For a further experiment, the system named is hamster hair mass. Description: Hamster hair mass assay. Conditions: vehicle 90% ethanol and 10% propylene glycol. It counts as in vivo. How it is done:
Hamster Hair Mass Assay: Hamster hair mass was determined using a method similar to that described in previous patent (US2004/0198821).

Setting [2] is: Homo sapiens, Table II, dose 100 μM, vs control.

`C[C@H](CCC(=O)O)[C@H]1CC[C@H]2[C@@H]3[C@H](O)C[C@@H]4C[C@H](O)CC[C@]4(C)[C@H]3CC[C@]12C` [Chenodeoxycholic acid] registered an inhibition at 100 µM in experiment [1] (setting [2]) of 95.3 ± 5.6%. Further, the “Hair follicle length increase (mm) Treated” value (shortened to “Hair follicle length increase”) in experiment [1] (Table II, dose 100 μM) is reported as 0.05 ± 0.06 mm. Further, in experiment [1] (dose 5 μM), the “% Reduction of human hair follicle growth” value (shortened to “% Reduction”) came to 1.3 ± 18.7% and the “Growth of follicle (mm) Treated” value was 1.53 ± 0.29 mm. For the same compound, in experiment [1] (dose 25 μM), the “% Reduction” value worked out at 49.0 ± 17.4% and the “Growth of follicle (mm) Treated” value is given as 0.79 ± 0.27 mm. Also, in experiment [1] (dose 50 μM), the “% Reduction” value worked out at 91.6 ± 6.5% and the “Growth of follicle (mm) Treated” value amounted to 0.13 ± 0.10 mm. Further, in the experiment with hamster hair mass (dose 5% (w/v)), the “% Inhibition of hamster hair mass” value is given as 76.4 ± 2.6% and the “Hair mass (mg) Treated” value is listed as 0.54 ± 0.08 mg.
In turn, `C[C@H](CCC(=O)O)[C@H]1CC[C@H]2[C@@H]3CC[C@@H]4C[C@H](O)CC[C@]4(C)[C@H]3C[C@H](O)[C@]12C` [Deoxycholic acid] gave an inhibition at 100 µM in experiment [1] (setting [2]) of 94.3 ± 4.7%. The “Hair follicle length increase” value in experiment [1] (Table II, dose 100 μM) came out at 0.06 ± 0.05 mm. Further, in experiment [1] (dose 10 μM), the “% Reduction” value is given as 31.8 ± 18.1% and the “Growth of follicle (mm) Treated” value is listed as 1.20 ± 0.49 mm. In experiment [1] (dose 50 μM), the “% Reduction” value turned out to be 69.3 ± 13.6% and the “Growth of follicle (mm) Treated” value amounted to 0.54 ± 0.34 mm. Besides, in experiment [1] (dose 100 μM), the “% Reduction” value turned out to be 69.3 ± 13.6% and the “Growth of follicle (mm) Treated” value was 0.54 ± 0.34 mm. In the experiment with hamster hair mass (dose 5% (w/v)), the “% Inhibition of hamster hair mass” value was determined as 63.6 ± 6.0% and the “Hair mass (mg) Treated” value stood at 0.92 ± 0.14 mg.
For `CC(C)=CCCC(C)=CCCC(C)=CCO` [Farnesol], the inhibition at 100 µM in experiment [1] (setting [2]) stood at 95.4 ± 8%. In addition, in experiment [1] (Table II, dose 100 μM), the “Hair follicle length increase” value amounted to 0.04 ± 0.07 mm.
Consider `COC(=O)C=C(C)CCC=C(C)CCC1OC1(C)C` (centres unmarked) [Juvenile hormone III, 7-Methyl-9-(3,3-dimethyloxivanyl)-3-methyl-2,6-nonadienoic acid methyl ester], for which the “Hair follicle length increase” value in experiment [1] (Table II, dose 100 μM) is listed as 0.21 ± 0.15 mm. Moreover, the “% Inhibition of human hair follicle growth” value in experiment [1] (Table II, dose 100 μM, vs control) is 75.9 ± 17.2%.
For the compound `C[C@H](CCC(=O)O)[C@H]1CC[C@H]2[C@@H]3CC[C@@H]4C[C@H](O)CC[C@]4(C)[C@H]3CC[C@]12C` [Lithocholic acid], the inhibition at 50 µM in experiment [1] (Homo sapiens, Table II, dose 50 μM, vs control) turned out to be 98.1 ± 1.9%. The “Hair follicle length increase” value in experiment [1] (Table II, dose 50 μM) stood at 0.02 ± 0.02 mm. In experiment [1] (dose 2 μM), the “% Reduction” value stood at 33.9 ± 11.3% and the “Growth of follicle (mm) Treated” value was determined as 0.82 ± 0.14 mm. In experiment [1] (dose 10 μM), the “% Reduction” value is reported as 64.5 ± 12.9% and the “Growth of follicle (mm) Treated” value came to 0.44 ± 0.16 mm. In addition, in experiment [1] (dose 20 μM), the “% Reduction” value is recorded as 97.6 ± 4.8% and the “Growth of follicle (mm) Treated” value came to 0.03 ± 0.06 mm. Besides, in the experiment on hamster hair mass (dose 4% (w/v)), the “% Inhibition of hamster hair mass” value was determined as 46.4 ± 6.0% and the “Hair mass (mg) Treated” value is 1.01 ± 0.12 mg.
`C[C@H](CCC(=O)O)[C@H]1CC[C@H]2[C@@H]3[C@@H](O)C[C@@H]4C[C@H](O)CC[C@]4(C)[C@H]3CC[C@]12C` [Ursodeoxycholic acid] displayed an inhibition at 200 µM in experiment [1] (Homo sapiens, Table II, dose 200 μM, vs control) of 81.3 ± 10.3%. For the same compound, the “Hair follicle length increase” value in experiment [1] (Table II, dose 200 μM) was 0.20 ± 0.11 mm. Moreover, in experiment [1] (dose 50 μM), the “% Reduction” value is given as 36.3 ± 13.6% and the “Growth of follicle (mm) Treated” value is reported as 1.12 ± 0.24 mm. In experiment [1] (dose 100 μM), the “% Reduction” value was determined as 51.1 ± 11.4% and the “Growth of follicle (mm) Treated” value is on record as 0.86 ± 0.20 mm. In experiment [1] (dose 150 μM), the “% Reduction” value is 65.3 ± 11.4% and the “Growth of follicle (mm) Treated” value was found to be 0.61 ± 0.20 mm. For the same compound, in the experiment on hamster hair mass (dose 5% (w/v)), the “% Inhibition of hamster hair mass” value is given as 56.8 ± 3.8% and the “Hair mass (mg) Treated” value was found to be 1.02 ± 0.16 mg.
